# Patent US10316017B2, “COT modulators and methods of use thereof” (Gilead Sciences, Inc., priority 2015, dated 2019)
# Legend:
# [1] = tested on: TNFα production in LPS-stimulated human monocytes; assay: Cot Monocyte TNFα Cell Based Assay; conditions: Homo sapiens, Monocyte, LPS-stimulated human monocytes, TNFα TR-FRET; read-out: EC50 TNF
# In short: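 5,000 cells/well; cmpd 1 h, 37 °C, 0.5% DMSO final; LPS 50 pg/ml, 4 h, 37 °C; media TNFα by HTRF sandwich (cryptate/XL665), RT overnight; % control vs unstimulated/stimulated wells.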
# [2] = target: T1, human Cot catalytic domain (30-397 amino acids) (Homo sapiens, UniProt P41279); assay: High Throughput Cot Biochemical Assay (KinEASE TR-FRET); conditions: Cot KinEASE TR-FRET, 400 μM ATP; read-out: IC50 HTRF
# T1 construct: Purified recombinant human Cot catalytic domain (30-397 amino acids) was purchased from Cama Biosciences; purchased Cama Biosciences (so in the source)
# T1 sequence (P41279 30-397): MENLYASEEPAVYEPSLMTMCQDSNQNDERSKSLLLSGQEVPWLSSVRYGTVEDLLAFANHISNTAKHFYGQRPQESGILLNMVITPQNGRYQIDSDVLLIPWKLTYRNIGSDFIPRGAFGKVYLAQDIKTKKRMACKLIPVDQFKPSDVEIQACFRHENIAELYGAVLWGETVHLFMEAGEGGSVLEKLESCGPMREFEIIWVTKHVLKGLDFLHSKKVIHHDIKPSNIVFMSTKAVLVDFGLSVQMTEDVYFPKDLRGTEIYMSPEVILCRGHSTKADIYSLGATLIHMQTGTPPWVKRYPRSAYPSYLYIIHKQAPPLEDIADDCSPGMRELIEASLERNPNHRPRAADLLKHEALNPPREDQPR
# In short: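 First, purified human Cot (aa 30-397) at 5 nM phosphorylates an XL665-labeled STK3 peptide (1 μM) at 400 μM ATP, pH 7.0, 0.1% DMSO. Then a europium-conjugated phospho-specific antibody binds the product, giving the TR-FRET signal.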
Structure (SMILES),EC50 [1] [µM],IC50 [2] [µM]
"CC(C)(C)CNc1c(C#N)cnc2c(C#N)cc(N[C@@H](c3ccc(F)cc3)c3cn(C4(c5ccccn5)CC4)nn3)cc12 [Example 968, (S)-6-(((4-fluorophenyl)(1-(1-(pyridin-2-yl)cyclopropyl)-1H-1,2,3-triazo1-4-yl)methyl)amino)-4-(neopentylamino) quinoline-3,8-dicarbonitrile]",0.11,0.017
"[2H]C(Nc1cc(C#N)c2ncc(C#N)c(NCC(C)(C)C)c2c1)(c1cccc(C#N)c1)c1cn(C2(C(N)=O)CC2)nn1 (stereo not drawn) [Example 969, 1-(4-((3-cyanophenyl)((3,8-dicyano-4-(neopentylamino)quinolin-6-yl)amino)methyl-d)-1H-1,2,3-triazol-1-yl)cyclopropane-1-carboxamide]",≥ 1,0.001
"CC(C)(C)CNc1c(C#N)cnc2c(Cl)cc(N[C@@H](c3ccccc3)c3cn(C(F)(F)C(N)=O)nn3)cc12 [Example 970, (S)-2-(4-(((8-chloro-3-cyano-4-(neopentylamino)quinolin-6-yl)amino)(phenyl)methyl)-1H-1,2,3-triazol-1-yl)-2,2-difluoroacetamide]",0.202,0.008
"[2H][C@](Nc1cc(Cl)c2ncc(C#N)c(NCC(C)(C)C)c2c1)(c1cccc(C#N)c1)c1cn(C(F)(F)C(N)=O)nn1 [Example 971, (S)-2-(4-(((8-chloro-3-cyano-4-(neopentylamino)quinolin-6-yl)amino)(3-cyanophenyl)methyl-d)-1H-1,2,3-triazol-1-yl)-2,2-difluoroacetamide]",0.27,0.004
"CC[C@@H](Nc1c(C#N)cnc2c(Cl)cc(N[C@H](c3cn(C(F)(F)C(N)=O)nn3)c3ccccc3Cl)cc12)c1ccccc1 [Example 972, 2-(4-((S)-((8-chloro-3-cyano-4-(((R)-1-phenylpropyl)amino)quinolin-6-yl)amino) (2-chlorophenyl)methyl)-1H-1,2,3-triazol-1-yl)-2,2-difluoroacetamide]",0.636,0.027
"CC(C)(C)CNc1c(C#N)cnc2c(C#N)cc(N[C@@H](c3ccc(F)cc3)c3cn(C4(C5CC5)CC4)nn3)cc12 [Example 973, (S)-6-(((1-([1,1'-bi (cyclopropan)]-1-yl)-1H-1,2,3-triazol-4-yl)(4-fluorophenyl)methyl)amino)-4-(neopentylamino) quinoline-3,8-dicarbonitrile]",0.067,0.009
"CC(C)(C)CNc1c(C#N)cnc2c(C#N)cc(N[C@@H](c3ccc(F)cc3)c3cn(C4(c5cccnc5)CC4)nn3)cc12 [Example 974, (S)-6-(((4-fluorophenyl)(1-(1-(pyridin-3-yl)cyclopropyl)-1H-1,2,3-triazol-4-yl)methyl)amino)-4-(neopentylamino) quinoline-3,8-dicarbonitrile]",0.046,0.046
"CC(C)(C)CNc1c(C#N)cnc2c(C#N)cc(N[C@@H](c3ccccc3)c3cn(C4(C(N)=O)CC4)nn3)cc12 [Example 975, (S)-1-(4-(((3,8-dicyano-4-(neopentylamino)quinolin-6-yl)amino)(phenyl)methyl)-1H-1,2,3-triazol-1-yl)cyclopropane-1-carboxamide]",0.321,0.003
"CC(C)(C)CNc1c(C#N)cnc2c(C#N)cc(N[C@@H](c3ccc(F)cc3)c3cn(C4(C#N)CC4)nn3)cc12 [Example 976, (S)-6-(((1-(1-cyanocyclopropyl)-1H-1,2,3-triazol-4-yl)(4-fluorophenyl)methyl)amino)-4-(neopentylamino)quinoline-3,8-dicarbonitrile]",0.058,0.006
"CC(C)(C)CNc1c(C#N)cnc2c(C#N)cc(N[C@@H](c3ccc(F)cc3)c3cn(C4(C(N)=O)CC4)nn3)cc12 [Example 977, (S)-1-(4-(((3,8-dicyano-4-(neopentylamino)quinolin-6-yl)amino)(4-fluorophenyl)methyl)-1H-1,2,3-triazol-1-yl)cyclopropane-1-carboxamide]",0.285,0.006
"CC(C)(C)CNc1c(C#N)cnc2c(C#N)cc(N[C@@H](c3ccc(F)cc3)c3cn(C4(C)CC4)nn3)cc12 [Example 978, (S)-6-(((4-fluorophenyl)(1-(1-methylcyclopropyl)-1H-1,2,3-triazol-4-yl)methyl)amino)-4-(neopentylamino)quinoline-3,8-dicarbonitrile]",0.065,0.005
"CC(C)(C)CNc1c(C#N)cnc2c(C#N)cc(N[C@@H](c3ccc(F)cc3)c3cn(C4(CO)CC4)nn3)cc12 [Example 979, (S)-6-(((4-fluorophenyl)(1-(1-(hydroxymethyl)cyclopropyl)-1H-1,2,3-triazol-4-yl)methyl)amino)-4-(neopentylamino)quinoline-3,8-dicarbonitrile]",0.103,0.004
"[2H][C@](Nc1cc(Cl)c2ncc(C#N)c(NCC(C)(C)C)c2c1)(c1ccc(Cl)cc1)c1cn(C2CCN(C3CC3)CC2)nn1 [Example 982, (S)-8-chloro-6-(((4-chlorophenyl)(1-(1-cyclopropylpiperidin-4-yl)-1H-1,2,3-triazol-4-yl)methyl-d)amino)-4-(neopentylarnino) quinoline-3-carbonitrile]",0.54,0.023
"CC(C)(C)CNc1c(C#N)cnc2c(C#N)cc(N[C@@H](c3ccc(F)cc3)c3cn(C4(c5ccncc5)CC4)nn3)cc12 [Example 983, (S)-6-(((4-fluorophenyl)(1-(1-(pyridin-4-yl)cyclopropyl)-1H-1,2,3-triazol-4-yl)methyl)amino)-4-(neopentylamino) quinoline-3,8-dicarbonitrile]",0.039,0.011
"CC(C)(C)CNc1c(C#N)cnc2c(C#N)cc(N[C@@H](c3ccc(F)cc3)c3cn(C4(c5cnccn5)CC4)nn3)cc12 [Example 984, (S)-6-(((4-fluorophenyl)(1-(1-(pyrazin-2-yl)cyclopropyl)-1H-1,2,3-triazol-4-yl)methyl)amino)-4-(neopentylamino)quinoline-3,8-dicarbonitrile]",0.093,0.125
"CC(C)(C)CNc1c(C#N)cnc2c(C#N)cc(N[C@@H](c3ccc(F)cc3)c3cn(C4(C(N)=O)CCC4)nn3)cc12 [Example 985, (S)-1-(4-(((3,8-dicyano-4-(neopentylamino)quinolin-6-yl)amino)(4-fluorophenyl)methyl)-1H-1,2,3-triazol-1-yl)cyclobutane-1-carboxamide]",0.119,0.004
"N#Cc1cnc2c(Cl)cc(N[C@@H](c3ccccc3)c3cn(C4CC4)nn3)cc2c1N[C@@H](c1ccccc1)C(F)(F)CO [Example 986, 8-chloro-6-(((S)-(1-cyclopropyl-1H-1,2,3-triazol-4-yl)(phenyl)methyl)amino)-4-(((S)-2,2-difluoro-3-hydroxy-1-phenylpropyl)amino)quinoline-3-carbonitrile]",0.222,0.013
"CC(C)(C)CNc1c(C#N)cnc2c(C#N)cc(N[C@@H](c3ccc(F)cc3)c3cn(C4(c5cccnn5)CC4)nn3)cc12 [Example 987, (S)-6-(((4-fluorophenyl)(1-(1-(pyridazin-3-yl)cyclopropyl)-1H-1,2,3-triazol-4-yl)methyl)amino)-4-(neopentylamino)quinoline-3,8-dicarbonitrile]",0.069,0.032
